Assay results: patent US20250206761A1, “HALOINDOLE MACROCYCLIC COMPOUNDS FOR THE TREATMENT OF CANCER” (Hoffmann-La Roche Inc., priority 2022, published 2025)

Experiments:
KRAS G12C-BRAF complex = KRAS G12C-BRAF complex (Homo sapiens (Human), UniProt P01116+P62937, G12C); assay: KRAS-BRAF with CYPA (500 nM) interaction assay (TR-FRET), G12C; assay type: biochemical
[1] = system: phosphorylation of ERK, KRAS G12D in AGS cells; assay: pERK inhibition assay, KRAS G12D; assay type: cell-based, human; conditions: Homo sapiens, 4 hours
Outline: (§1)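 ERK phosphorylation is measured after 4 h of compound exposure in attached cells, using a colorimetric immunoassay on fixed, permeabilized monolayers. IC50 is derived by 4-parameter sigmoidal fitting.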

[2] = system: phosphorylation of ERK, KRAS G12V in SW620; assay: pERK inhibition assay, KRAS G12V; assay type: cell-based, human; conditions: Homo sapiens, SW-620, SW620, 4 hours
Outline: as §1

[3] = target: KRAS G12D binding to BRAF (Homo sapiens (Human), UniProt P01116+P62937, G12D); assay: KRAS-BRAF with CYPA (500 nM) interaction assay (TR-FRET), G12D; assay type: biochemical
Sequence of KRAS G12D binding to BRAF (P01116-2 other isoform, or with tags, fused parts or gaps G12D): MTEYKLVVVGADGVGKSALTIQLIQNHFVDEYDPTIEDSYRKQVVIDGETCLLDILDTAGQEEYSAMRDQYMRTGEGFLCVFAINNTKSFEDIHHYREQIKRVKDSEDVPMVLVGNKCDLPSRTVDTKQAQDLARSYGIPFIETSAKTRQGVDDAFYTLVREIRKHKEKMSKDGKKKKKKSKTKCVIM
Sequence of KRAS G12D binding to BRAF (P62937 whole entry): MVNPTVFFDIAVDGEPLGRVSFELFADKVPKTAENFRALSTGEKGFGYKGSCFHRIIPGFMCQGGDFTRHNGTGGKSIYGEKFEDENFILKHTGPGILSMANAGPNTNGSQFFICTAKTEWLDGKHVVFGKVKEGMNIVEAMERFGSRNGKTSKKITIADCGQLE

Sequence of KRAS G12C-BRAF complex (P01116-2 other isoform, or with tags, fused parts or gaps G12C): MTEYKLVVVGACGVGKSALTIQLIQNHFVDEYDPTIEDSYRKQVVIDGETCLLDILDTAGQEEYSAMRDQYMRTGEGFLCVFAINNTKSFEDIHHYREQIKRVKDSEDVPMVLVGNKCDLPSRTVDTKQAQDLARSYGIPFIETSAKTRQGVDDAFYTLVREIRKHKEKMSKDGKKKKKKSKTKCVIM
Sequence of KRAS G12C-BRAF complex (P62937 whole entry): as the sequence (P62937 whole entry) above

Row | SMILES | IC50 (KRAS G12C-BRAF complex) [nM] | IC50 [1] [nM] | IC50 [2] [nM] | IC50 [3] [nM]
1 | CO[C@@H](C)c1ncc(N2CCN(C)CC2)cc1-c1c2c3cc(c(F)cc3n1CC(F)(F)F)-c1cc(O)cc(c1)C[C@H](NC(=O)[C@H](C(C)C)N(C)C(=O)[C@H]1CCN(C(=O)[C@H](F)Cl)C1)C(=O)N1CCC[C@H](N1)C(=O)OCC(C)(C)C2 (atropisomer, axis not shown; (M)) [Example 8, (3S)-1-[(2R)-2-chloro-2-fluoro-acetyl]-N-[(1S)-1-[[(8S,14S)-25-fluoro-4-hydroxy-(21M)-21-[2-[(1S)-1-methoxyethyl]-5-(4-methylpiperazin-1-yl)-3-pyridyl]-18,18-dimethyl-9,15-dioxo-22-(2,2,2-trifluoroethyl)-16-oxa-10,22,28-triazapentacyclo[18.5.2.1^2,6.1^10,14.0^23,27]nonacosa-1(26),2,4,6(29),20,23(27),24-heptaen-8-yl]carbamoyl]-2-methyl-propyl]-N-methyl-pyrrolidine-3-carboxamide] | 3 | 90 | 127 | 85
2 | CO[C@@H](C)c1ncc(N2CCN(C)CC2)cc1-c1c2c3cc(c(C)cc3n1CC(F)(F)F)-c1csc(n1)C[C@H](NC(=O)[C@H](C(C)C)N(C)C(=O)C1(F)CCN(C(=O)[C@H](F)Cl)CC1)C(=O)N1CCC[C@H](N1)C(=O)OCC(C)(C)C2 (atropisomer, axis not shown; (M)) [Example 9, 1-[(2R)-2-chloro-2-fluoro-acetyl]-4-fluoro-N-[(1S)-1-[[(7S,13S)-(20M)-20-[2-[(1S)-1-methoxyethyl]-5-(4-methylpiperazin-1-yl)-3-pyridyl]-17,17,24-trimethyl-8,14-dioxo-21-(2,2,2-trifluoroethyl)-15-oxa-4-thia-9,21,27,28-tetrazapentacyclo[17.5.2.1^2,5.1^9,13.0^22,26]octacosa-1(25),2,5(28),19,22(26),23-hexaen-7-yl]carbamoyl]-2-methyl-propyl]-N-methyl-piperidine-4-carboxamide] | 176 | 23 | 22 | > 10000
3 | CO[C@@H](C)c1ncc(N2CCN(C)CC2)cc1-c1c2c3cc(c(F)cc3n1CC(F)(F)F)-c1csc(n1)C[C@H](NC(=O)[C@H](C(C)C)N(C)C(=O)C1(F)CCN(C(=O)[C@H](F)Cl)CC1)C(=O)N1CCC[C@H](N1)C(=O)OCC(C)(C)C2 (atropisomer, axis not shown; (M)) [Example 10, 1-[(2R)-2-chloro-2-fluoro-acetyl]-4-fluoro-N-[(1S)-1-[[(7S,13S)-24-fluoro-(20M)-20-[2-[(1S)-1-methoxyethyl]-5-(4-methylpiperazin-1-yl)-3-pyridyl]-17,17-dimethyl-8,14-dioxo-21-(2,2,2-trifluoroethyl)-15-oxa-4-thia-9,21,27,28-tetrazapentacyclo[17.5.2.1^2,5.1^9,13.0^22,26]octacosa-1(25),2,5(28),19,22(26),23-hexaen-7-yl]carbamoyl]-2-methyl-propyl]-N-methyl-piperidine-4-carboxamide] | 20 | 16 | 6 | 964
4 | CO[C@@H](C)c1ncc(N2CCN(C)CC2)cc1-c1c2c3cc(c(F)cc3n1CC(F)(F)F)-c1csc(n1)C[C@H](NC(=O)[C@H](C(C)C)N1CCCC3(CN(C(=O)[C@H](F)Cl)C3)C1=O)C(=O)N1CCC[C@H](N1)C(=O)OCC(C)(C)C2 (atropisomer, axis not shown; (M)) [Example 11, (2S)-2-[2-[(2R)-2-chloro-2-fluoro-acetyl]-5-oxo-2,6-diazaspiro[3.5]nonan-6-yl]-N-[(7S,13S)-24-fluoro-(20M)-20-[2-[(1S)-1-methoxyethyl]-5-(4-methylpiperazin-1-yl)-3-pyridyl]-17,17-dimethyl-8,14-dioxo-21-(2,2,2-trifluoroethyl)-15-oxa-4-thia-9,21,27,28-tetrazapentacyclo[17.5.2.1^2,5.1^9,13.0^22,26]octacosa-1(25),2,5(28),19,22(26),23-hexaen-7-yl]-3-methyl-butanamide] | 45 | 27 | 22 | > 10000
5 | CO[C@@H](C)c1ncc(N2CCN(C)CC2)cc1-c1c2c3c(F)c(ccc3n1CC(F)(F)F)-c1csc(n1)C[C@H](NC(=O)[C@H](C(C)C)N1CCCC3(CCN(C(=O)[C@H](F)Cl)CC3)C1=O)C(=O)N1CCC[C@H](N1)C(=O)OCC(C)(C)C2 (atropisomer, axis not shown; (M)) [Example 20, (2S)-2-[9-[(2R)-2-chloro-2-fluoro-acetyl]-1-oxo-2,9-diazaspiro[5.5]undecan-2-yl]-N-[(7S,13S)-25-fluoro-(20M)-20-[2-[(1S)-1-methoxyethyl]-5-(4-methylpiperazin-1-yl)-3-pyridyl]-17,17-dimethyl-8,14-dioxo-21-(2,2,2-trifluoroethyl)-15-oxa-4-thia-9,21,27,28-tetrazapentacyclo[17.5.2.1^2,5.1^9,13.0^22,26]octacosa-1(25),2,5(28),19,22(26),23-hexaen-7-yl]-3-methyl-butanamide] | 148 | 98 | 73 | 1240
6 | CCn1c(-c2cc(N3CCN(CC(F)(F)F)CC3)cnc2[C@H](C)OC)c2c3cc(c(F)cc31)-c1csc(n1)C[C@H](NC(=O)[C@H](C(C)C)N(C)C(=O)C1(F)CCN(C(=O)[C@H](F)Cl)CC1)C(=O)N1CCC[C@H](N1)C(=O)OCC(C)(C)C2 (atropisomer, axis not shown; (M)) [Example 49, 1-[(2R)-2-chloro-2-fluoro-acetyl]-N-[(1S)-1-[[(7S,13S)-21-ethyl-24-fluoro-(20M)-20-[2-[(1S)-1-methoxyethyl]-5-[4-(2,2,2-trifluoroethyl)piperazin-1-yl]-3-pyridyl]-17,17-dimethyl-8,14-dioxo-15-oxa-4-thia-9,21,27,28-tetrazapentacyclo[17.5.2.1^2,5.1^9,13.0^22,26]octacosa-1(25),2,5(28),19,22(26),23-hexaen-7-yl]carbamoyl]-2-methyl-propyl]-4-fluoro-N-methyl-piperidine-4-carboxamide] | 15 | 65 | 20 | 444
7 | CCn1c(-c2cc(N3CCOCC3)cnc2[C@H](C)OC)c2c3cc(c(F)cc31)-c1csc(n1)C[C@H](NC(=O)[C@H](C(C)C)N1CC[C@]3(CCN(C(=O)[C@H](F)Cl)C3)C1=O)C(=O)N1CCC[C@H](N1)C(=O)OCC(C)(C)C2 (atropisomer, axis not shown; (M)) [Example 51, (2S)-2-[(5S)-7-[(2R)-2-chloro-2-fluoro-acetyl]-1-oxo-2,7-diazaspiro[4.4]nonan-2-yl]-N-[(7S,13S)-21-ethyl-24-fluoro-(20M)-20-[2-[(1S)-1-methoxyethyl]-5-morpholino-3-pyridyl]-17,17-dimethyl-8,14-dioxo-15-oxa-4-thia-9,21,27,28-tetrazapentacyclo[17.5.2.1^2,5.1^9,13.0^22,26]octacosa-1(25),2,5(28),19,22(26),23-hexaen-7-yl]-3-methyl-butanamide] | 74 | 62 | 57 | > 10000
8 | CCn1c(-c2cc(N3CCOCC3)cnc2[C@H](C)OC)c2c3cc(c(F)cc31)-c1csc(n1)C[C@H](NC(=O)[C@H](C(C)C)N1CCC3(CN(C(=O)[C@H](F)Cl)C3)C1=O)C(=O)N1CCC[C@H](N1)C(=O)OCC(C)(C)C2 (atropisomer, axis not shown; (M)) [Example 52, (2S)-2-[2-[(2R)-2-chloro-2-fluoro-acetyl]-5-oxo-2,6-diazaspiro[3.4]octan-6-yl]-N-[(7S,13S)-21-ethyl-24-fluoro-(20M)-20-[2-[(1S)-1-methoxyethyl]-5-morpholino-3-pyridyl]-17,17-dimethyl-8,14-dioxo-15-oxa-4-thia-9,21,27,28-tetrazapentacyclo[17.5.2.1^2,5.1^9,13.0^22,26]octacosa-1(25),2,5(28),19,22(26),23-hexaen-7-yl]-3-methyl-butanamide] | 115 | 103 | 58 | 2060
9 | CCn1c(-c2cc(N3CCOCC3)cnc2[C@H](C)OC)c2c3cc(c(F)cc31)-c1csc(n1)C[C@H](NC(=O)[C@H](C(C)C)N1CC[C@@]3(CCN(C(=O)[C@H](F)Cl)C3)C1=O)C(=O)N1CCC[C@H](N1)C(=O)OCC(C)(C)C2 (atropisomer, axis not shown; (M)) [Example 53, (2S)-2-[(5R)-7-[(2R)-2-chloro-2-fluoro-acetyl]-1-oxo-2,7-diazaspiro[4.4]nonan-2-yl]-N-[(7S,13S)-21-ethyl-24-fluoro-(20M)-20-[2-[(1S)-1-methoxyethyl]-5-morpholino-3-pyridyl]-17,17-dimethyl-8,14-dioxo-15-oxa-4-thia-9,21,27,28-tetrazapentacyclo[17.5.2.1^2,5.1^9,13.0^22,26]octacosa-1(25),2,5(28),19,22(26),23-hexaen-7-yl]-3-methyl-butanamide] | 56 | 46 | 61 | > 10000
10 | CCn1c(-c2cc(N3CCOCC3)cnc2[C@H](C)OC)c2c3cc(c(F)cc31)-c1csc(n1)C[C@H](NC(=O)[C@H](C(C)C)N(C)C(=O)C1(F)CCN(C(=O)[C@H](F)Cl)CC1)C(=O)N1CCC[C@H](N1)C(=O)OCC(C)(C)C2 (atropisomer, axis not shown; (M)) [Example 54, 1-[(2R)-2-chloro-2-fluoro-acetyl]-N-[(1S)-1-[[(7S,13S)-21-ethyl-24-fluoro-(20M)-20-[2-[(1S)-1-methoxyethyl]-5-morpholino-3-pyridyl]-17,17-dimethyl-8,14-dioxo-15-oxa-4-thia-9,21,27,28-tetrazapentacyclo[17.5.2.1^2,5.1^9,13.0^22,26]octacosa-1(25),2,5(28),19,22(26),23-hexaen-7-yl]carbamoyl]-2-methyl-propyl]-4-fluoro-N-methyl-piperidine-4-carboxamide] | 19 | 25 | 15 | 303
